Source: patent publication US20260265329A1, “POLYPEPTIDE AND DERIVATIVE THEREOF, COMPOSITION, AND USE THEREOF” (HANGZHOU SCIWIND BIOSCIENCES CO., LTD., priority 2023, published 2026)
Starred links: 1 amine or outer side, 2 acyl side, 3 side chain; linkers in the order of their positions; H or OH if unused. Non-standard residues stand in square brackets, D forms with d. Residues, ends and D or L forms follow the SMILES beside them. *: point of attachment. C20 diacid = O=C(O)CCCCCCCCCCCCCCCCCCC(=O)*; γGlu = O=C(O)[C@H](CCC(=O)[*:2])N[*:1]; Hyp = O=C(O)[C@@H]1C[C@@H](O)CN1

Assays:
[1] = Efficacy assay in SD rats, dose-dependent study (Example 5); assay type: in vivo; conditions: for Body weight and food intake reduction compared with Cagrilintide: equivalent dosage; for Effect on body weight / Effect on food intake: single subcutaneous dose 10, 30, 100 nmol/kg (FIGS. 3A-3D)
Method: SPF male SD rats (7-8 weeks, 220-230 g) were employed in this study after health inspection and quarantine. The experimental animals were exposed to a room temperature of 20° C.-23° C. and a relative humidity of 40%-50%, and were provided with Co60 mouse reproduction feed 1035 and purified water supplied with water feeding bottles for free intake throughout the health inspection and quarantine and the study. […] Using a single dose administered via subcutaneous injection, the study lasted for a total of 6 days with the day of administration designated as Day 1/Time 0 (TO), wherein on Day 0, the initial body weight of the animals were recorded and the initial feed was added, and on Day 1-Day 5, the body weight of the studied animals as well as the remaining food were recorded daily for calculating the percentage of weight change and the amount of food intake, any anomalies during which were required to be recorded and reported. During the study, the rats were in good condition and no anomaly was observed. Weight change=(BWTn−BWT0)/BWT0* 100%, wherein BW represented the value of body weight, and T0 and Tn represented the time points of dosing and n hours post dose respectively. Dots in the figures were represented utilizing mean±standard error of the mean (SEM). Accumulated food intake was the total amount of food intake for each of the animals prior to a certain time point post dose.

[2] = in vivo; design: species or system SD rats; conditions: male, SD, rat, sc, 1 mg/kg
Method: The animals received a subcutaneous injection of corresponding compounds for testing (1 mg/kg and 5 ml/kg), and the day of administration was designated as D1. The whole blood of the animals was collected pre dose (-10 min) on D1 and post dose at D1-2h, D1-4h, D1-6h, D2-24h, D3-48h, D4-72h, D5-96h, and D6-120 h and was processed into plasma (using EDTA for anticoagulation). Liquid chromatography-tandem mass spectrometry (LC-MS/MS) was used to detect the concentration of drug molecules in the plasma, and GraphPad Prism 10 was utilized to plot a concentration-time curve for the drugs whose pharmacokinetic parameters including Cmax, Tmax, T1/2, AUC, and MRT were then calculated with PKSolver.

[3] = target: T1, human amylin receptors (Homo sapiens, UniProt O60896+P30988); assay: Luciferase assay in stably transfected amylin receptor/CRE-luc CHO cell line; assay type: cell-based; conditions: for Relative activity: EC50 ratio of Cagrilintide to the compound, Cagrilintide 100%; for EC50: amylin receptor/CRE-luc CHO cells, 24 hours incubation, luminescence
T1 construct: host or cells: CHO-K1/Ga15/AMY3 cells, further stably transfected with a CRE-luciferase plasmid
T1 sequence (P30988 25-474): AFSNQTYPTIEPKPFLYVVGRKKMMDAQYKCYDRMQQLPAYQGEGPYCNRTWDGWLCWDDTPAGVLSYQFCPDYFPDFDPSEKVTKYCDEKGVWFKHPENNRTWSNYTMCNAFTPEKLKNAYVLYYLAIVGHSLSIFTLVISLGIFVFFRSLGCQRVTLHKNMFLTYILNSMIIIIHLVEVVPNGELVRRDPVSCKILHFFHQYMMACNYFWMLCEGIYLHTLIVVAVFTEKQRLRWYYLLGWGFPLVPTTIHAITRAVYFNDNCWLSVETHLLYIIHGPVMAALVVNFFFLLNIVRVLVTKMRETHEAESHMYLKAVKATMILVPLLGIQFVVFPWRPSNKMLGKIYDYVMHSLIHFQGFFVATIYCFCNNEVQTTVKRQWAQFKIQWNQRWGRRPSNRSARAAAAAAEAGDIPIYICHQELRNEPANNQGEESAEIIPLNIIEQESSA
T1 sequence (O60896 24-148 partner): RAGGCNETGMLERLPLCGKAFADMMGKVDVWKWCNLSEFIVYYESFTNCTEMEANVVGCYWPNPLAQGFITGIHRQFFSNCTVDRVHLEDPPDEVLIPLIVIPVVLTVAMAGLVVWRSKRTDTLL

[4] = Efficacy assay in DIO SD rats, dose-dependent study (Example 6); assay type: in vivo; conditions: for Body weight and food intake reduction compared with Cagrilintide: equivalent dosage; for Effect on body weight / Effect on food intake: subcutaneous once a day for 10 days, 3 and 10 nmol/kg (FIGS. 4A, 4B)
Method: SPF male DIO SD rats (36-37 weeks, […], fed with high-fat diet for 34 weeks from 3-week age on) were employed in this study. The experimental animals were exposed to a room temperature of 20° C.-23° C. and a relative humidity of 40%-50%, and were provided with high-fat diet D12492 and purified water supplied with water feeding bottles for free intake throughout the construction of the DIO animal model and the study. Based on their mean body weight, the animals were assigned to 6 groups designated as B1-B6 (n=5). Administration via subcutaneous injection was conducted once a day for 10 continuous days, wherein the first day of administration was designated as Day 1 (D1), and on Day 0, the initial body weight of the animals were recorded and the initial feed was added, and on Day 1-Day 11, the body weight of the studied animals as well as the remaining food were recorded daily for calculating the percentage of weight change and the amount of food intake, any anomalies during which were required to be recorded and reported. During the study, the rats were in good condition and no anomaly was observed. Weight change=(BWDn−BWD1)/BWD1*100%, wherein BW represented the value of body weight, and D1 and Dn represented the first and Nth days of administration respectively. Dots in the figures were represented utilizing mean±standard error of the mean (SEM). Accumulated food intake was the total amount of food intake for animals of each group prior to a certain time point post dose.

[5] = Heat accelerated stability assay, 40° C., detection on 10 d and 20 d; assay type: physicochemical; conditions: 1 mg/mL, pH about 7.4, 40° C.
In short: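 Polypeptide derivatives at 1 mg/mL with sodium dihydrogen phosphate (1.42 mg/mL) in water, pH ~7.4, sterile-filtered and held at 40° C. Sampled at 10 d and 20 d, centrifuged, and supernatant analysed by HPLC (214 nm, 25° C., phosphate pH 5.8/ACN gradient) for concentration and purity.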

[6] = background statement; cited from earlier work

AUC(0-inf) [2] | AUC(0-t) [2] | Cmax [2] | MRT inf [2] | Tmax [2] | half-life [2] | Relative activity [3] | EC50 [3] | Reduction in purity, 10 d [5] | Reduction in purity, 20 d [5] | Compound | Body weight and food intake reduction compared with Cagrilintide [1] | Effect on body weight [1] | Effect on food intake [1] | Body weight and food intake reduction compared with Cagrilintide [4] | Effect on body weight [4] | Effect on food intake [4] | fibrillation [6]
217 µg·h/mL | 214 µg·h/mL | 4930 ng/mL | 39 h | 24 h | 21.3 h | 180% | 0.05 nM | 3.6% | 6.6% | CC[C@H](C)[C@H](NC(=O)[C@@H]1CCCN1C(=O)[C@H](CCCCN)NC(=O)[C@H](CC(C)C)NC(=O)[C@H](CO)NC(=O)[C@H](CO)NC(=O)[C@H](CO)NC(=O)[C@H](CO)NC(=O)[C@H](Cc1c[nH]cn1)NC(=O)[C@H](CCCNC(=N)N)NC(=O)[C@H](CC(C)C)NC(=O)[C@H](Cc1ccccc1)NC(=O)[C@H](CC(=O)O)NC(=O)[C@H](C)NC(=O)[C@H](CC(C)C)NC(=O)[C@H](CCCNC(=N)N)NC(=O)[C@H](CCC(N)=O)NC(=O)[C@@H](NC(=O)[C@H](C)NC(=O)[C@H](C)NC(=O)[C@@H](NC(=O)[C@H](CO)NC(=O)[C@H](CC(C)C)NC(=O)[C@H](CCC(N)=O)NC(=O)[C@H](CO)NC(=O)[C@H](C)NC(=O)CC[C@H](NC(=O)CCCCCCCCCCCCCCCCCCC(=O)O)C(=O)O)[C@@H](C)O)[C@@H](C)O)C(=O)N[C@@H](CC(C)C)C(=O)N1CCC[C@H]1C(=O)N1CCC[C@H]1C(=O)N[C@H](C(=O)N[C@@H](CC(N)=O)C(=O)N[C@H](C(=O)NCC(=O)N[C@@H](CO)C(=O)N[C@@H](CC(N)=O)C(=O)N[C@H](C(=O)N1C[C@H](O)C[C@H]1C(N)=O)[C@@H](C)O)C(C)C)[C@@H](C)O [M43] ({C20 diacid-γGlu}-ASQLSTAATQRLADFLRHSSSSLKPILPPTNVGSNT[Hyp]-NH2) | performed better than Cagrilintide at the equivalent dosage | dose-dependently reduced | dose-dependently reduced | performed better than Cagrilintide at the equivalent dosage | dose-dependently reduced | dose-dependently reduced | –
– | – | – | – | – | – | – | – | – | – | CC[C@H](C)[C@H](NC(=O)[C@@H]1CCCN1C(=O)CNC(=O)[C@H](Cc1ccccc1)NC(=O)[C@H](CC(N)=O)NC(=O)[C@H](CC(N)=O)NC(=O)[C@H](CO)NC(=O)[C@H](CO)NC(=O)[C@H](Cc1c[nH]cn1)NC(=O)[C@@H](NC(=O)[C@H](CC(C)C)NC(=O)[C@H](Cc1ccccc1)NC(=O)[C@H](CC(N)=O)NC(=O)[C@H](C)NC(=O)[C@H](CC(C)C)NC(=O)[C@H](CCCNC(=N)N)NC(=O)[C@H](CCC(N)=O)NC(=O)[C@@H](NC(=O)[C@H](C)NC(=O)[C@@H]1CSSC[C@H](NC(=O)[C@@H](N)CCCCN)C(=O)N[C@@H](CC(N)=O)C(=O)N[C@@H]([C@@H](C)O)C(=O)N[C@@H](C)C(=O)N[C@@H]([C@@H](C)O)C(=O)N1)[C@@H](C)O)C(C)C)C(=O)N[C@@H](CC(C)C)C(=O)N1CCC[C@H]1C(=O)N1CCC[C@H]1C(=O)N[C@H](C(=O)N[C@@H](CC(N)=O)C(=O)N[C@H](C(=O)NCC(=O)N[C@@H](CO)C(=O)N[C@@H](CC(N)=O)C(=O)N[C@H](C(=O)N[C@@H](Cc1ccc(O)cc1)C(N)=O)[C@@H](C)O)C(C)C)[C@@H](C)O [Pramlintide] | – | – | – | – | – | – | fibrillates at pH 7
257 µg·h/mL | 250 µg·h/mL | 4780 ng/mL | 45.9 h | 24 h | 23.7 h | 113% | 0.08 nM | 2.93% | 4.26% | CC[C@H](C)[C@H](NC(=O)[C@@H]1CCCN1C(=O)[C@H](CCCCN)NC(=O)[C@H](CC(C)C)NC(=O)[C@H](CCC(N)=O)NC(=O)[C@H](CCC(N)=O)NC(=O)[C@H](CO)NC(=O)[C@H](CO)NC(=O)[C@H](Cc1c[nH]cn1)NC(=O)[C@H](CCCNC(=N)N)NC(=O)[C@H](CC(C)C)NC(=O)[C@H](Cc1ccccc1)NC(=O)[C@H](CC(=O)O)NC(=O)[C@H](C)NC(=O)[C@H](CC(C)C)NC(=O)[C@H](CCCNC(=N)N)NC(=O)[C@H](CCC(N)=O)NC(=O)[C@@H](NC(=O)[C@H](C)NC(=O)[C@H](C)NC(=O)[C@@H](NC(=O)[C@H](CO)NC(=O)[C@H](CC(C)C)NC(=O)[C@H](CCC(N)=O)NC(=O)[C@H](CO)NC(=O)[C@H](C)NC(=O)CC[C@H](NC(=O)CCCCCCCCCCCCCCCCCCC(=O)O)C(=O)O)[C@@H](C)O)[C@@H](C)O)C(=O)N[C@@H](CC(C)C)C(=O)N1CCC[C@H]1C(=O)N1CCC[C@H]1C(=O)N[C@H](C(=O)N[C@@H](CC(N)=O)C(=O)N[C@H](C(=O)NCC(=O)N[C@@H](CO)C(=O)N[C@@H](CC(N)=O)C(=O)N[C@H](C(=O)N1C[C@H](O)C[C@H]1C(N)=O)[C@@H](C)O)C(C)C)[C@@H](C)O [M41] ({C20 diacid-γGlu}-ASQLSTAATQRLADFLRHSSQQLKPILPPTNVGSNT[Hyp]-NH2) | performed better than Cagrilintide at the equivalent dosage | dose-dependently reduced | dose-dependently reduced | performed better than Cagrilintide at the equivalent dosage | dose-dependently reduced | dose-dependently reduced | –
